According to patent EP4813383A1, “USE OF TAFAMIDIS AND PHARMACEUTICALLY ACCEPTABLE SALT THEREOF IN PREVENTION, ALLEVIATION, OR TREATMENT OF DISEASES ASSOCIATED WITH HIF-2a” (Huaya Jiyuan (Shenzhen) Pharmaceutical Co., Ltd., priority 2024, dated 2025):

Key:
[1] = target: T1, HIF-2α (Homo sapiens, UniProt Q99814); experiment: Luciferase reporter gene assay (HRE-driven luciferase in stably transfected 786-O cells); type: cell-based
T1 construct: 786-O is a renal carcinoma cell line that predominantly expresses HIF-2α and lacks functional HIF-1α; endogenous in cells; host or cells: 786-O cells stably carrying an HRE-driven luciferase reporter
From the text: Experimental principles: 786-O is a renal carcinoma cell line that predominantly expresses HIF-2α and lacks functional HIF-1α. This characteristic makes 786-O cells an ideal model for studying HIF-2α transcriptional activity and related signaling pathways. In the luciferase reporter gene assay, a 786-O monoclonal cell line that stably expresses hypoxia response element (HRE)-driven luciferase (Luc) activity is obtained through puromycin selection. The HIF-2α agonist promotes dimerization of HIF-2α and HIF-β, and activates an HRE promoter. By measuring fluorescence intensity, luciferase activity can be determined, thereby assessing the ability of the HIF-2α agonist to promote transcription.
Experimental method: A total of 6000 stably transfected 786-O cells stably containing HRE and Luc sequences are seeded in each well of a 96-well plate, and 100 µL of RPMI-1640 culture medium containing 10% fetal bovine serum is added to each well. After 24 hours, a compound at a corresponding concentration is added to each well. A blank group is set as a control. Only a DMSO solvent is added in the well of the blank group. For initial compound screening, both tafamidis and tafamidis meglumine are tested at two concentrations: 2 µM and 20 µM. For concentration-gradient determination, each concentration is tested in triplicate. After co-incubation for 24 hours, the culture medium is discarded, and 20 µL of firefly luciferase reporter gene cell lysis buffer (RG126M, Beyotime) is added to each well. The 96-well plate is shaken on a microplate shaker for 10 minutes. After shaking, 10 µL of lysate is transferred into a white opaque plate, and then 10 µL of Steady-Lumi™ firefly luciferase assay reagent (RG058S, Beyotime) is added to each well. Finally, luminescence is measured using a microplate reader (Agilent Synergy Neo2). E20 represents the effect of the compound at a 20 µM concentration, and is calculated as: E20 = fluorescence value of the 20 µM well ÷ fluorescence value of the blank control × 100%. E2 represents the effect of the compound at a 2 µM concentration, and is calculated as: E2 = fluorescence value of the 2 µM well ÷ fluorescence value of the blank control × 100%. EC50 is the compound concentration at which the agonistic efficacy is increased by 50% relative to the blank control. The agonistic efficacy of a compound is determined by calculating the concentration (EC50) required to achieve a 50% increase in the fluorescence activity relative to the blank control and a maximum activation percentage (Emax). The maximum activation percentage (Emax) of an agonist refers to a ratio, expressed as a percentage, of the fluorescence value corresponding to the maximal effect (observed maximal response) induced when the agonist concentration reaches receptor-binding saturation in a particular receptor system, to the fluorescence value of the receptor system in the absence of agonist. In this experiment, Vyndaqel is directly used in place of tafamidis meglumine.

[2] = test system: vascular endothelial growth factor (VEGF) gene expression; experiment: qRT-PCR assay of VEGF gene expression in 786-O renal carcinoma cells; type: cell-based; conditions: 24 hours, relative to the vehicle, GAPDH internal control
Procedure: (§1) Experimental method: 786-O renal carcinoma cells are seeded into a 12-well plate. After 24 hours, tafamidis is added at different concentrations (1 µM, 10 µM, and 20 µM, separately), and the cells are co-incubated with the compound for 24 hours. No treatment is applied to the vehicle group. RNA is extracted using a TRIZOL reagent. cDNA transcription is performed using an All-in-one™ First-Strand cDNA Synthesis Kit (for specific operating procedures, see the manufacturer's instructions). A SYBR reagent is used for fluorescence signal detection, and GAPDH is used as an internal control. The qRT-PCR primers are as follows: • GAPDH_fwd, […]; • GAPDH_rev, TGGTGAAGACGCCAGTGGA; • VEGF_fwd, […]; • VEGF_rev, […]; • EPO_fwd, […]; • EPO_rev, […].

[3] = test system: erythropoietin (EPO) gene expression; experiment: qRT-PCR assay of EPO gene expression in 786-O renal carcinoma cells; type: cell-based; conditions: 20 µM, 24 hours, relative to the vehicle, GAPDH internal control
Procedure: as §1

[4] = test system: aristolochic acid-induced zebrafish model; experiment: Aristolochic acid-induced zebrafish chronic kidney disease model: renal edema incidence; type: in vivo, Wild-type AB strain zebrafish; conditions: 1 µM in aqueous solution, 30 hours; model group 100%
Procedure: Wild-type AB strain zebrafish at 2 days post-fertilization (2 dpf) are randomly selected and placed in a 6-well plate, with 30 zebrafish treated in each well (treatment group). Other than the normal control group, all treatment groups are exposed to aristolochic acid in aqueous solution to establish a zebrafish renal anemia model. After treatment at 28 °C for 18 hours, a normal control group and a model control group are set up simultaneously. Tafamidis samples are administered in aqueous solution to the treatment groups separately (at concentrations of 20 µM, 10 µM, and 1 µM separately, each concentration being tested in triplicate). Water is administered to the normal control group and the model control group correspondingly, with a volume of 3 mL per well.

[5] = test system: aristolochic acid-induced zebrafish model; experiment: Aristolochic acid-induced zebrafish model: glomerular filtration (whole-body fluorescence of tracer); type: in vivo, Wild-type AB strain zebrafish; conditions: 1 µM in aqueous solution; normal group 100%, model group 239%
Procedure: Wild-type AB strain zebrafish at 2 days post-fertilization are randomly selected and placed in a 6-well plate, with 30 zebrafish treated in each well (treatment group). Other than the normal control group, all treatment groups are exposed to aristolochic acid in aqueous solution to establish a zebrafish renal anemia model. After treatment at 28 °C for 18 hours, a normal control group and a model control group are set up simultaneously. Tafamidis samples are administered in aqueous solution to the treatment groups separately (at concentrations of 0.1 µM and 1 µM separately). Water is administered to the normal control group and the model control group correspondingly, with a volume of 3 mL per well. After continued treatment at 28 °C for 4 hours, all treatment groups are intravenously injected with a fluorescent tracer (dextran tetramethylrhodamine). After a further 1 day of treatment at 28 °C, 10 zebrafish are randomly selected from each treatment group and photographed under a fluorescence microscope. Data are analyzed and collected using NIS-Elements D 3.20 advanced image processing software, and whole-body fluorescence intensity in the zebrafish is analyzed. Statistical analysis of this indicator is used to evaluate the efficacy of the samples in repairing renal injury. Statistical results are expressed as mean±SE. […]

T1 sequence (Q99814 whole entry): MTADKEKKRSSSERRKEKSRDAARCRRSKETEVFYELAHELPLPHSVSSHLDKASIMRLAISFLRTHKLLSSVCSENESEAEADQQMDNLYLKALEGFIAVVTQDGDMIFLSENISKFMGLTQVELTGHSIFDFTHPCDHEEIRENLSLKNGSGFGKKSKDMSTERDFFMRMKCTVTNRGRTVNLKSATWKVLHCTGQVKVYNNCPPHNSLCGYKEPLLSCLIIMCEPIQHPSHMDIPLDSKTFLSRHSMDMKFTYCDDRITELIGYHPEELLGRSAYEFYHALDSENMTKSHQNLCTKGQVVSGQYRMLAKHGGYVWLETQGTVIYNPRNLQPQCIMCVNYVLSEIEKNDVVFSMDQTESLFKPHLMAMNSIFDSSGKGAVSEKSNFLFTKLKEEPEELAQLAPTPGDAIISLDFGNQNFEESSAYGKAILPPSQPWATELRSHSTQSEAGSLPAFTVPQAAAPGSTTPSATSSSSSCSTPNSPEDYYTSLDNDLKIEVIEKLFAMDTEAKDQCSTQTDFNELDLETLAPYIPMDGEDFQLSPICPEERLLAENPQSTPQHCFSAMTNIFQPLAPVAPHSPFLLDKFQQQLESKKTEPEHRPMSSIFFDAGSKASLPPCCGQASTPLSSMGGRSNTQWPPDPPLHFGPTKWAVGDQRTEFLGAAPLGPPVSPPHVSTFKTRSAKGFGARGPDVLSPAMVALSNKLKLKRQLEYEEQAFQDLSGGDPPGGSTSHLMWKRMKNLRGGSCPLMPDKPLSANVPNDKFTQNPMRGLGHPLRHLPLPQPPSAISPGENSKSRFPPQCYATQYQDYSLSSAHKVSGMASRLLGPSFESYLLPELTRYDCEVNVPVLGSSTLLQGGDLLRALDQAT
T1 sequence (P27540 whole entry partner): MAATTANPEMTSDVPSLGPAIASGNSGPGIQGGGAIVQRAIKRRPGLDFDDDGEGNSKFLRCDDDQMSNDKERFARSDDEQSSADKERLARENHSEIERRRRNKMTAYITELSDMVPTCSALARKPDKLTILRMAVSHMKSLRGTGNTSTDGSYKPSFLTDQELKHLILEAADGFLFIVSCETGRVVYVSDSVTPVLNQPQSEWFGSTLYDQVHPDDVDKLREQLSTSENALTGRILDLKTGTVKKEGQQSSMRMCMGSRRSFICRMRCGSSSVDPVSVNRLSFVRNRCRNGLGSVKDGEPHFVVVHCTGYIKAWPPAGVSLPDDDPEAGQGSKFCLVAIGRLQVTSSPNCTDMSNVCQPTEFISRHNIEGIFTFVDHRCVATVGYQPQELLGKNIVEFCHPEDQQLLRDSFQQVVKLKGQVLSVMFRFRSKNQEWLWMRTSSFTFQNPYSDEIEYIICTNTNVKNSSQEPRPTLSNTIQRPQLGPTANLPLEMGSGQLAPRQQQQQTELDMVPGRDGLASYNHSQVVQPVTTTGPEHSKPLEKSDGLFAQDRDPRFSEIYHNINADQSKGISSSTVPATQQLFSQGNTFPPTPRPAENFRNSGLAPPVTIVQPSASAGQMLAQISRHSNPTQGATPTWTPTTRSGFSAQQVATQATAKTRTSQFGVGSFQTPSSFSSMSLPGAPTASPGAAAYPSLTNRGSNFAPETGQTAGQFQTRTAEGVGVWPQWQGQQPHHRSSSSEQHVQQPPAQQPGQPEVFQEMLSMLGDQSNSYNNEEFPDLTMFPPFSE

Compound: O=C(O)c1ccc2nc(-c3cc(Cl)cc(Cl)c3)oc2c1 [tafamidis, 2-(3,5-dichlorophenyl)-1,3-benzoxazole-6-carboxylic acid]
- agonistic efficacy at a 2 µM concentration (E2) ([1]; 2 µM, 24 hours co-incubation, fluorescence value as % of blank control (DMSO)): 142%
- agonistic efficacy at a 20 µM concentration (E20) ([1]; 20 µM, 24 hours co-incubation, fluorescence value as % of blank control (DMSO)): 207%
- Emax ([1]; 786-0, read-out: Emax (maximum activation percentage), maximal response as % of fluorescence without agonist): 225%
- EC50 ([1]; concentration required for a 50% increase in fluorescence activity relative to the blank control, 24 hours, read-out: EC50): 1110 nM
- upregulates vascular endothelial growth factor (VEGF) gene expression ([2]; 10 µM): 0.5 fold
- upregulates VEGF gene expression ([2]; 20 µM): 1.4 fold
- upregulates erythropoietin (EPO) gene expression [3]: 0.9 fold
- renal edema incidence [4]: 80%
- glomerular filtration rate [5]: 158%
